Reference: US7943644B2, “Stabilization of iodine-containing biocides by means of special azole compounds” (LANXESS Deutschland GmbH, priority 2006, dated 2011)

Test: Storage stability of IPBC in Dowanol TPM solution with cobalt dryer and azole stabilizer (HPLC)
Assay type: physicochemical
Details: 10% by weight IPBC, 5% Octasoligen-Cobalt 8, 5% stabilizer; for Amount of IPBC (start): HPLC at the beginning; for Amount of IPBC (2 weeks, 40° C.): stored at 40° C., HPLC after two weeks
Procedure: A solution was prepared in Dowanol TPM (tripropylene glycol methyl ether), containing 10% by weight of iodopropargyl butylcarbamate, 5% by weight of Octasoligen-Cobalt 8 (Borchers, Langenfeld, Germany) and 5% by weight of the azole compounds of the formula (I) specified as a stabilizer in Table 1. The mixture was stored at 40° C. The amount of IPBC was determined by means of HPLC at the beginning and after two weeks.

## Oc1nnc(S)[nH]1 [Example 2]
  Amount of IPBC (start): 9.9%
  Amount of IPBC (2 weeks, 40° C.): 8.9%

## Sc1nnc[nH]1 [Example 1]
  Amount of IPBC (start): 10.2%
  Amount of IPBC (2 weeks, 40° C.): 9.0%

## Nc1nnc[nH]1 [Example 3]
  Amount of IPBC (start): 9.7%
  Amount of IPBC (2 weeks, 40° C.): 9.5%

## Nc1nnc(N)[nH]1 [Example 4]
  Amount of IPBC (start): 9.7%
  Amount of IPBC (2 weeks, 40° C.): 9.7%
